For this assay, the target named is human Granzyme B (hGranzyme B) (Homo sapiens, UniProt P10144). As to the kind of experiment: Surface plasmon resonance (SPR) binding kinetics to hGranzyme B. The note with it: 25° C., 1:1 binding model, KD=kd/ka; read-out: Granzyme B SPR Kd. How it is done:
The kinetics of test peptide binding to human Granzyme B (hGranzyme B) was determined by SPR. All experiments were performed at 25° C. using the Biacore 8k+ instrument (Cytiva, Marlborough, MA). The Biacore 8k+ Insight Evaluation Software Version 3.0 was used to fit the data with a 1:1 binding model to determine the association rate constant ka (M^−1s^−1, where “M” ~equals molar and “s” ~equals seconds) and the dissociation rate constant kd (s^−1). These rate constants were used to calculate the equilibrium dissociation constant. KD (M)=kd/ka.
To measure the binding kinetics of peptides of interest, surfaces were prepared by a capture method to a Series S Streptavidin (SA) chip using a 1×HBS-EP+ running buffer (Cytiva). hGranzyme B was diluted to 10 μg/mL in IX HBS-EP+ and flowed over spot 2 of each flow cell on the chip at a flow rate of 10 ul/min for 20 s to achieve a level of capture of ~1100 RU. An unmodified spot 1 of each flow cell was used as a matrix binding control or reference surface. Binding kinetics were measured using single cycle kinetics at 25° C. by injecting 5 concentrations with 3-fold serial dilutions of test peptides from 0.01 μM to 1 μM. Compound dilutions were performed manually in a running buffer containing 1×HBS-EP+(Cytiva), and a final concentration of 2% DMSO. The interaction analyses over hGranzyme B, were performed using a 120 s association time and a 900 s dissociation time. All experiments were conducted at a flow rate of 50 μL/min with a data collection rate of 10 Hz.
Peptide dilution series included 2 zero concentration points (no compound) which were averaged and subtracted from the peptide concentration injection as DMSO control responses. Binding data acquired from the reference surface (matrix binding control) were subtracted from the binding data for hGranzyme B surface on the chip to determine specific binding. Next, the association phase data were solvent corrected to account for any signal fluctuation throughout the experiment due to subtle DMSO concentration differences. Corrected response data were analyzed using the Biacore 8k+ Evaluation Software Version 3.0 according to the manufacturer. SPR data for representative compounds of the disclosure are found in Table 8.
(In general: In SPR one partner is held on a chip, and binding of the other changes the refractive index at the surface.)

Numbered stars: 1 amine (or outer) side, 2 acyl side, 3 side chain; on linkers, the order of the positions; unused ones are H or OH. Bridge positions count the residues as written; N and C are the ends. Square brackets hold non-standard residues; d marks the D form. Peptide text beside a SMILES is read from it. I, II: the chains in the order shown. CO(CH2)2(OCH2CH2)17CO = O=C(CCOCCOCCOCCOCCOCCOCCOCCOCCOCCOCCOCCOCCOCCOCCOCCOCCOCCC(=O)[*:2])[*:1]; Pro(cis-4-F) = O=C(O)[C@@H]1C[C@H](F)CN1; Aib = CC(C)(N)C(=O)O

Consider `C[C@@H]1NC(=O)[C@H](CO)NC(=O)[C@H](CCC(N)=O)NC(=O)[C@H](CC(=O)O)NC(=O)[C@H](CCC(=O)O)NC(=O)[C@H](Cc2ccccc2)NC(=O)[C@H](CC(N)=O)NC(=O)[C@H](Cc2ccccc2)NC(=O)CSC[C@@H](C(=O)NCC(=O)NCC(=O)N[C@@H](CCCCNC(=O)CCOCCOCCOCCOCCOCCOCCOCCOCCOCCOCCOCCOCCOCCOCCOCCOCCOCCC(=O)NCCCC[C@H](NC(=O)CNC(=O)CNC(=O)[C@@H]2CSCC(=O)N[C@@H](Cc3ccccc3)C(=O)N[C@@H](CC(N)=O)C(=O)N[C@@H](Cc3ccccc3)C(=O)N[C@@H](CCC(=O)O)C(=O)N[C@@H](CC(=O)O)C(=O)N[C@@H](CCC(N)=O)C(=O)N[C@@H](CO)C(=O)N[C@@H](C)C(=O)N[C@@H](CC(=O)O)C(=O)N[C@@H]([C@@H](C)O)C(=O)N[C@@H](Cc3c[nH]c4ccccc34)C(=O)N[C@@H](CCC(N)=O)C(=O)N3CCC[C@H]3C(=O)N2)C(N)=O)C(N)=O)NC(=O)[C@@H]2CCCN2C(=O)[C@H](CCC(N)=O)NC(=O)[C@H](Cc2c[nH]c3ccccc23)NC(=O)[C@H]([C@@H](C)O)NC(=O)[C@H](CC(=O)O)NC1=O` [Compound 18a, (*F.N.F.E.D.Q.S.A.D.T.W.Q.P.*C.G.G.K.NH2)-PEG17-(F.N.F.E.D.Q.S.A.D.T.W.Q.P.C.G.G.K.NH2)] (I: {CH2CO}-FNFEDQSADTWQPCGGK-NH2 / II: {CH2CO}-FNFEDQSADTWQPCGGK-NH2; linker I:17-II:17 via CO(CH2)2(OCH2CH2)17CO (inferred); thioether I:N-I:14, II:N-II:14 (inferred)), for which the Kd (as a rule, the equilibrium constant for the complex coming apart) is < 0.3 nM.
As for `C[C@@H](O)[C@@H]1NC(=O)CNC(=O)C(C)(C)NC(=O)[C@H](CO)NC(=O)[C@H](CCC(N)=O)NC(=O)[C@H](CC(=O)O)NC(=O)[C@H](CCC(=O)O)NC(=O)[C@H](Cc2ccccc2)NC(=O)[C@H](CC(N)=O)NC(=O)[C@H](Cc2ccccc2)NC(=O)CSC[C@@H](C(=O)NCC(N)=O)NC(=O)[C@@H]2CCCN2C(=O)[C@H](CCC(N)=O)NC(=O)[C@H](Cc2c[nH]c3ccccc23)NC1=O` [Compound 45a, *F.N.F.E.D.Q.S.Aib.G.T.W.Q.P.*C.G.NH2] ({CH2CO}-FNFEDQS[Aib]GTWQPCG-NH2; thioether N-14), the Kd was determined as 3.7 nM.
The result for `C[C@@H](O)[C@@H]1NC(=O)[C@H](CC(=O)O)NC(=O)[C@@H]2CCCN2C(=O)[C@H](CO)NC(=O)[C@H](CCC(N)=O)NC(=O)[C@H](CC(=O)O)NC(=O)[C@H](CCC(=O)O)NC(=O)[C@H](Cc2ccccc2)NC(=O)[C@H](CC(N)=O)NC(=O)[C@H](Cc2ccccc2)NC(=O)CSC[C@@H](C(=O)NCC(N)=O)NC(=O)[C@@H]2C[C@H](F)CN2C(=O)[C@H](CCC(N)=O)NC(=O)[C@H](Cc2c[nH]c3ccccc23)NC1=O` [Compound 48a, *F.N.F.E.D.Q.S.P.D.T.W.Q.Proc4F.*C.G.NH2] ({CH2CO}-FNFEDQSPDTWQ[Pro(cis-4-F)]CG-NH2; thioether N-14) reads 4.2 nM; that for `C[C@@H](O)[C@@H]1NC(=O)[C@H](CC(=O)O)NC(=O)[C@@H]2CCCN2C(=O)[C@H](CO)NC(=O)[C@H](CCC(N)=O)NC(=O)[C@H](CC(=O)O)NC(=O)[C@H](CCC(=O)O)NC(=O)[C@H](Cc2ccccc2)NC(=O)[C@H](CC(N)=O)NC(=O)[C@H](Cc2ccccc2)NC(=O)CSC[C@@H](C(=O)NCC(=O)NCC(=O)N[C@@H](CCCCN)C(N)=O)NC(=O)[C@@H]2CCCN2C(=O)[C@H](CCC(N)=O)NC(=O)[C@H](Cc2c[nH]c3ccccc23)NC1=O` [Compound 51a, *F.N.F.E.D.Q.S.P.D.T.W.Q.P.*C.G.G.K.NH2] ({CH2CO}-FNFEDQSPDTWQPCGGK-NH2; thioether N-14), 4.8 nM; that for `CC(C)C[C@@H]1NC(=O)[C@@H]2CCCN2C(=O)[C@H](CO)NC(=O)[C@H](CCC(N)=O)NC(=O)[C@H](CC(=O)O)NC(=O)[C@H](CCC(=O)O)NC(=O)[C@H](Cc2ccccc2)NC(=O)[C@H](CC(N)=O)NC(=O)[C@H](Cc2ccccc2)NC(=O)CSC[C@@H](C(=O)NCC(N)=O)NC(=O)[C@@H]2CCCN2C(=O)[C@H](CCC(N)=O)NC(=O)[C@H](Cc2c[nH]c3ccccc23)NC(=O)[C@H]([C@@H](C)O)NC1=O` [Compound 52a, *F.N.F.E.D.Q.S.P.L.T.W.Q.P.*C.G.NH2] ({CH2CO}-FNFEDQSPLTWQPCG-NH2; thioether N-14), 4.8 nM.

Source of the values: patent publication US20260207798A1, “CYCLIC PEPTIDES AS PET IMAGING AGENTS OF GRANZYME B” (priority 2022, published 2026).
